Data reported in publication PMC7111470 (European Journal of Medicinal Chemistry, 2011).

Columns and labels:
[1] = biological target: T1, BCoV 9-SOAE (haemagglutinin-esterase on whole virus) (Bovine coronavirus Mebus, UniProt P15776); test: pNPA hydrolysis, A400; assay type: biochemical; conditions: read-out: BCoV / 3
[2] = biological target: T1, BCoV 9-SOAE (haemagglutinin-esterase on whole virus); test: pNPA hydrolysis, A400; assay type: biochemical

T1 sequence (P15776 17-424): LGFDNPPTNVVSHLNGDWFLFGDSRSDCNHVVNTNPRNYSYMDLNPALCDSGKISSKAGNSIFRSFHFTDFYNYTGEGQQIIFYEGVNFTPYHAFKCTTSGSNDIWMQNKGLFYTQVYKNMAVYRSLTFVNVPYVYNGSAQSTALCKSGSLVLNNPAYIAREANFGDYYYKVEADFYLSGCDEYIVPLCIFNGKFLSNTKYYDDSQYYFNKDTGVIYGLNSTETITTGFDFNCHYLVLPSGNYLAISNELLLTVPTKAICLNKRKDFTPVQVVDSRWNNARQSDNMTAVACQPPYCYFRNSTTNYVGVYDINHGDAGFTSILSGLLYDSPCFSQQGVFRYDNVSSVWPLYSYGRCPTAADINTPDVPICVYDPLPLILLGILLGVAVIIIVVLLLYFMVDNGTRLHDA

Row | Compound | inhibition at 2000 µM [1] [%] | pNPA hydrolysis, A400 [2]
1 | C=CCO[C@]1(C(=O)O)C[C@H](O)[C@@H](NC(C)=O)[C@H]([C@H](O)[C@H](O)COC)O1 [compound 3, Ammonium (allyl 5-acetamido-9-O-methyl-3,5-dideoxy-d-glycero-α-d-galacto-2-nonulopyranosidonate)] | < 0 | –
2 | CC(=O)Oc1ccc([N+](=O)[O-])cc1 [p-nitrophenyl acetate] | – | esterase activities of all viruses and recombinant proteins were determined with p-nitrophenyl acetate (pNPA)
